Converted amounts (≈) assume the structure as drawn. Where two headings read alike, the source gives them in different places.
What was measured:
[1] = MTT-based colorimetric cell viability assay; conditions: human, hepg2.2.15 cells; read-out: [] for a 50% reduction in MMT
Description: (§1) The anti-hepatitis B virus activity and effect on cell viability of a number of different N-substituted-1,5-dideoxy-1,5-imino-D-glucitol compounds were assessed using an in vitro assay employing chronically hepatitis B virus secreting HepG2.2.15 cells. The method employed was essentially that described in Block et al. (1994) Proc. Natl. Acad. Sci. USA 91:2235-2239.
• 1: N-(n-nonyl)-1,5-dideoxy-1,5-imino-D-glucitol • 2: N-(n-butyl)-1,5-dideoxy-1,5-imino-D-glucitol, diacetate • 3: 1,5-dideoxy-1,5-imino-D-glucitol, tetracetate • 4: N,O-(1,6-carbonyl)-1,5-dideoxy-1,5-imino-D-glucitol • 5: N-(n-butyl)-2,3-dimethoxy-1,5-dideoxy-1,5-imino-D-glucitol • 6: N-(n-hexyl)-4,6-benzylidine-1,5-dideoxy-1,5-imino-D-glucitol • 7: N-(n-butyl)-3-methoxy-1,5-dideoxy-1,5-imino-D-glucitol • 8: N-(4,4,4-triflourobutyl)-2,3-dimethoxy-1,5-dideoxy-1,5-imino-D-glucitol, tetracetate • 9: N,O-(1,6-methylenecarbonyl)-1,5-dideoxy-1,5-irriino-D-glucitol • 10: N-(8,8,8-triflourooctyl)-1,5-dideoxy-1,5-imino-D-glucitol MMT: 3-(4,5-dimethylthiazol-2-yl)-2,5-diphenyltetrazolium bromide. The MTT-based colorimetric assay is a measurement of cell viability (Heo et al. (1990) Cancer Research 50:3681-3690).

Hepatitis B Virus = assay: HBV secretion from chronically HBV secreting HepG2.2.15 cells (preS1 immunoprecipitation of virions, PCR); type: cell-based; conditions: for Relative amount of HBV secreted as a % of Control: 3 days, control = 100
Description: as §1

HepG2.2.15 cells = assay: Cell viability by trypan blue exclusion; type: cell-based; conditions: 3 days, cells excluding trypan blue
[2] = Cell viability by trypan blue exclusion; type: cell-based; conditions: human, hepg2.2.15 cells, 3 days, cells excluding trypan blue, read-out: % Viable +/-1 S.D.
HBV DNA = assay: Cell culture experiments with N-nonyl-DNJ: total HBV DNA and immune precipitated DNA; type: cell-based
Source text: (§2) There are two measures of drug efficacy: reduction in total HBV DNA (measured by quantitative PCR), and reduction in HBV DNA from capsids with intact surface glycoproteins, which is the active form of the virus (measured by an ELISA-like immune precipitation assay followed by quantitative PCR).

[3] = tested on: HepG 2.2.15 (2.2.15) cells; assay: IC-90 values used for the combostat dilutions (unpublished observation / literature); type: cell-based; conditions: Hepatitis B virus, HepG2.2.15, T. Block and G. Jacob
Description: The anti-hepatitis B virus effect of […] (3TC) alone and in combination with N-nonyl-DNJ was determined according to Korba ((1996) Antiviral Research 29(1):49-51), using the "combostat" strategy (Comstat Program, Combostat Corp., Duluth, MN). The combostat method involves serially diluting the IC-90 of each compound. The IC-90 of N-nonyl-DNJ has been determined to be between 4 and 10 µg/ml (T. Block and G. Jacob, unpublished observation). The accepted IC-90 for 3TC in HepG 2.2.15 (2.2.15) cells is 300nM to 500nM (Doong et al. (1991) Proc. Natl. Acad. Sci. USA 88:8495-8499).

[4] = tested on: woodchuck hepatitis virus (WHV); assay: Monotherapy in woodchuck model, BID oral dosing for 4 weeks; type: in vivo
Description: Therefore, five groups of four animals each (all groups had both sexes, all but the control had two of each sex) were assigned to 0, 12.5, 25, 50, and 100 mg/kg/day with BID oral dosing. These were lab-reared wild animals. All animals were infected with woodchuck hepatitis virus (WHV) as neonates, and had been tested positive on serological tests for WHV surface antigen. Blood samples were drawn one week prior to dosing (-1 week), immediately before dosing (0 weeks), weekly during dosing (1, 2, 3, and 4 weeks), and after the end of dosing (5, 6, 8, and 10 weeks).
as §2
Before models are fitted to the data, a log transform was applied because: 1) the variation in IPDNA increases with increasing IPDNA values; the log transformation gives values with a nearly constant variation, and 2) it is expected that drug effects will appear as a constant multiplier of the IPDNA level. Because there are zero values of IPDNA, a small value (about 1/2 of the smallest non-zero value) was added to all values before the log transform.
Two approaches were used to model the changes in slope to week with dose of N-nonyl-DNJ: a linear modeling approach and a nonlinear model. Both approaches assume that the (linear) rate of change of the Log(IPDNA) measure over the dosing period is the "right" measure to reflect the effect of the drug on the virus. Both approaches are fit in stages, and the first stage is common to both approaches. First, a simple straight line regression model is fit using weeks 0-4 to predict log(IPDNA_+_10) separately for each animal by run combination. In the second stage, the response variable is the slope fitted in the first stage.
For the linear approach, a model is fit with slope to week as the response where run is considered a block, dose has a significant effect (almost all of this effect is due to a slope to dose), and the relevant error for testing the effect of dose is the variation among animals treated alike (after the adjustment for the runs as blocks). This is similar to using the calibration data within each run to first adjust each run's data to a common virus DNA concentration; the difference is that here the data from the woodchucks are used for the run adjustment rather than only the calibration data.
For the nonlinear approach, a four parameter logistic model is fit with the slope to week as the response and the dose as the predictor. […]

[5] = concentration [200] (unit not given)
[6] = concentration [1000] (unit not given)

| Compound | CC50 [1] | IC90 (Hepatitis B Virus; Hepatitis B virus, HepG2.2.15, duplicate PCR results, * lowest concentration tested, ** no inhibition at the highest concentration used (200 microgs/ml), read-out: [ ] for 90% HBV secretion inhibition) | Relative amount of HBV secreted as a % of Control (Hepatitis B Virus; [5]) | Relative amount of HBV secreted as a % of Control (Hepatitis B Virus; [6]) | % Viable +/-1 S.D. (HepG2.2.15 cells; concentration [200] (unit not given), listed as 1, 4320 min) | viability at 72 h ([2]; concentration [200] (unit inferred)) | viability at 72 h ([2]; concentration [1000] (unit inferred)) | effect on immune precipitated DNA (IPDNA) (HBV DNA) | effect on total HBV DNA (HBV DNA) | IC90 [3] | decrease of IPDNA at the minimum slope ([4]; corresponds to the average minimum slope) | average minimum slope observed ([4]; printed as 'fewer' (a decrease), weeks 0-4) | effect on total HBV DNA measurements ([4]; quantitative PCR, all dose levels, pre-dose and dosed portions of the study) | IPDNA levels over the dosing period ([4]; weeks 0-4, immune precipitation followed by quantitative PCR) | [ ] for 90% HBV secretion inhibition (Hepatitis B Virus; duplicate PCR results, * lowest concentration tested, ** no inhibition at the highest concentration used (200 microgs/ml)) | % Viable +/-1 S.D. (HepG2.2.15 cells; [5]) | % Viable +/-1 S.D. (HepG2.2.15 cells; [6]) |
| --- | --- | --- | --- | --- | --- | --- | --- | --- | --- | --- | --- | --- | --- | --- | --- | --- | --- |
| CCCCN1C[C@H](O)[C@@H](O)[C@H](O)[C@H]1CO [NBDNJ, N-(n-butyl-)-1,5-dideoxy-1,5-imino-D-glucitol] | 100 to 200 µg/mL (≈ 456 to 912 µM) | 0.5 to 1 µg/mL (≈ 2.28 to 4.56 µM) | 37.0 +/-13 (n=15) % | 3.2 +/-5 (n=15) % | 90 +/-2 (n=4) % | 94 ± 6% | 87 ± 3% | – | – | – | – | – | – | – | – | – | – |
| CCCCCCCCCN1C[C@H](O)[C@@H](O)[C@H](O)[C@H]1CO [Compound 1 (Table 3), N-(n-nonyl)-1,5-dideoxy-1,5-imino-D-glucitol] | – | – | – | – | – | – | – | marked effect | little or no effect | 4 to 10 µg/mL | about 25 %/week | 0.31 Log(IPDNA g/mL)/week | no effect | high dose animals tended to have decreasing levels of IPDNA | – | – | – |
| 1,5-(butylimino)-1,5-dideoxy-D-glucitol, tetraacetate [Example 2] | – | – | 107.0 +/-12 (n=3) % | 38.0 +/-15 (n=3) % | – | – | – | – | – | – | – | – | – | – | >200*s* microgs per ml | 90 +/-6 (n=4) % | 89 +/-4 (n=4) % |
